The supplement of paper PMC10331698
± gives the standard deviation of the averaged measurements.

Assays:
Assay in all cases: level (log10 ratio to DMSO vehicle control); higher = higher biomarker level / cell amount than vehicle control
Methotrexate = compound: CN(Cc1cnc2nc(N)nc(N)c2n1)c1ccc(C(=O)N[C@@H](CCC(=O)O)C(=O)O)cc1 [Methotrexate]; details: in DMSO
Procedure: (§1)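 BioMAP Diversity Plus panel of 12 human primary cell co-culture systems (3C, 4H, LPS, SAg, BT, BF4T, BE3C, CASM3C, HDF3CGF, KF3CT, MyoF, Mphg). Compounds were added 1 h before stimulation and left for 24 h (MyoF 48 h; BT 72 h for soluble read-outs or 6 d for IgG). Biomarkers were read by ELISA, cytotoxicity by SRB, PBMC viability and proliferation by Alamar Blue. Each well value was divided by the mean of 8 DMSO control wells on the same plate and log10 transformed; duplicate blinded samples were tested at 4 concentrations.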

[1] = compound: OCC(F)(F)C(F)(F)C(F)(F)C(F)(F)C(F)(F)C(F)(F)C(F)(F)C(F)(F)CO [1H,1H,10H,10H-Perfluorodecane-1,10-diol]; details: in DMSO
Procedure: as §1

Perfluoropinacol = compound: OC(C(F)(F)F)(C(F)(F)F)C(O)(C(F)(F)F)C(F)(F)F [Perfluoropinacol]; details: in DMSO
Procedure: as §1

[2] = compound: FC(F)(F)COC(OCC(F)(F)F)OCC(F)(F)F [tris(Trifluoroethoxy)methane]; details: in DMSO
Procedure: as §1

[3] = compound: Cc1ccc(S(=O)(=O)OCC(F)(F)C(F)(F)C(F)(F)C(F)(F)C(F)(F)C(F)F)cc1 [1H,1H,7H-Perfluoroheptyl 4-methylbenzenesulfonate]; details: in DMSO
Procedure: as §1

[4] = compound: OCCC(F)(F)C(F)(F)C(F)(F)C(F)(F)C(F)(F)C(F)(F)C(F)(F)C(F)(F)F [8:2 Fluorotelomer alcohol]; details: 6700 nM; in DMSO
Procedure: as §1

[5] = compound: C=C(C)C(=O)OCC(F)(F)C(F)(F)C(F)(F)F [2,2,3,3,4,4,4-Heptafluorobutyl methacrylate]; details: in DMSO
Procedure: as §1

| Test System | level (log10) (Methotrexate; 1500 nM) | level (log10) (Methotrexate; 4400 nM) | level (log10) (Methotrexate; 13000 nM) | level (log10) (Methotrexate; 40000 nM) | level (log10) ([1]; 6700 nM) | level (log10) ([1]; 20000 nM) | level (log10) ([1]; 60000 nM) | level (log10) (Perfluoropinacol; 6700 nM) | level (log10) (Perfluoropinacol; 20000 nM) | level (log10) ([2]; 6700 nM) | level (log10) ([2]; 20000 nM) | level (log10) ([2]; 60000 nM) | level (log10) ([3]; 6700 nM) | level (log10) ([3]; 20000 nM) | level (log10) ([3]; 60000 nM) | level (log10) [4] | level (log10) ([5]; 6700 nM) | level (log10) ([5]; 20000 nM) | level (log10) ([5]; 60000 nM) |
| --- | --- | --- | --- | --- | --- | --- | --- | --- | --- | --- | --- | --- | --- | --- | --- | --- | --- | --- | --- |
| KF3CT:CCL2/MCP-1 | 0.052 ± 0.023 | -0.0125 ± 0.03 | -0.016 ± 0.024 | 0.0165 ± 0.0021 | -0.028 ± 0.021 | -0.024 ± 0.016 | -0.272 | 0.0955 ± 0.013 | 0.211 ± 0.024 | -0.021 ± 0.035 | -0.029 ± 0.0085 | 0.0315 ± 0.052 | 0.0035 ± 0.028 | -0.077 ± 0.025 | -0.009 ± 0.048 | -0.0165 ± 0.025 | 0.026 ± 0.014 | 0.008 ± 0.0085 | -0.0155 ± 0.0035 |
| lMphg:sIL-10 | 0.076 ± 0.03 | 0.05 ± 0.011 | 0.0485 ± 0.023 | 0.014 ± 0.028 | -0.0265 ± 0.06 | -0.357 ± 0.27 | -1.1 | 0.031 ± 0.017 | -0.498 ± 0.24 | -0.045 ± 0.075 | -0.061 ± 0.037 | -0.0855 ± 0.091 | -0.194 ± 0.063 | -0.0825 ± 0.14 | -0.0155 ± 0.091 | -0.17 ± 0.013 | -0.0245 ± 0.028 | -0.0155 ± 0.005 | -0.0165 ± 0.0035 |
| HDF3CGF:SRB | 0.018 ± 0.034 | -0.0135 ± 0.0035 | 0.025 ± 0.011 | 0.014 ± 0.016 | -0.0485 ± 0.021 | -0.0255 ± 0.091 | -0.224 | -0.027 ± 0.0042 | -0.0055 ± 0.039 | 0.003 ± 0.073 | 0.0335 ± 0.0035 | 0.02 ± 0.038 | 0.0175 ± 0.033 | -0.0095 ± 0.026 | -0.04 ± 0.055 | -0.0335 ± 0.035 | 0.007 ± 0.02 | -0.002 ± 0.0099 | 0.017 ± 0.0085 |
| CASM3C:CXCL8/IL-8 | 0.0365 ± 0.057 | 0.0255 ± 0.06 | 0.034 ± 0.05 | 0.063 ± 0.061 | -0.0275 ± 0.028 | -0.048 ± 0.0099 | -0.011 | 0.004 ± 0.011 | 0.029 | -0.008 ± 0.0042 | -0.01 ± 0.016 | 0.0055 ± 0.03 | -0.0095 ± 0.015 | -0.0055 ± 0.013 | -0.002 ± 0.0099 | -0.006 ± 0.011 | 0.0035 ± 0.012 | -0.0085 ± 0.032 | 0.012 ± 0.024 |
| lMphg:SRB-Mphg | -0.105 ± 0.073 | -0.0855 ± 0.0021 | -0.105 ± 0.064 | 0.0295 ± 0.025 | 0.003 ± 0.028 | -0.0625 ± 0.084 | -0.775 | -0.015 ± 0.0099 | -0.05 ± 0.0028 | -0.026 ± 0.013 | -0.038 ± 0.044 | -0.008 ± 0.027 | 0.033 ± 0.0028 | -0.013 ± 0.03 | 0.0155 ± 0.036 | -0.015 ± 0.03 | 0.003 | -0.0115 ± 0.016 | 0.0155 ± 0.016 |
| KF3CT:CD54/ICAM-1 | -0.0085 ± 0.012 | -0.011 ± 0.0014 | 0.006 ± 0.0071 | 0.007 ± 0.0042 | -0.002 ± 0.0085 | -0.018 ± 0.0057 | -0.125 | 0.012 ± 0.0099 | 0.0185 ± 0.015 | -0.015 | -0.021 ± 0.0014 | -0.006 ± 0.023 | 0.003 ± 0.0057 | 0.001 ± 0.0042 | 0 ± 0.0042 | -0.0195 ± 0.0021 | 0.0015 ± 0.016 | -0.003 ± 0.016 | 0.0085 ± 0.005 |
| BE3C:uPA | -0.013 ± 0.0028 | -0.0315 ± 0.033 | -0.0205 ± 0.052 | -0.0015 ± 0.036 | -0.008 ± 0.011 | -0.0315 ± 0.0021 | -0.078 | -0.0055 ± 0.005 | -0.042 ± 0.011 | 0.0075 ± 0.021 | -0.004 ± 0.0071 | -0.0175 ± 0.00071 | 0.01 ± 0.018 | -0.0155 ± 0.019 | -0.001 ± 0.0057 | -0.0175 ± 0.00071 | -0.005 ± 0.013 | 0.005 ± 0.011 | -0.002 ± 0.025 |
| MyoF:TIMP-1 | -0.0025 ± 0.0021 | -0.025 ± 0.027 | -0.012 ± 0.033 | -0.0285 ± 0.084 | 0.03 ± 0.031 | 0.078 ± 0.04 | 0.052 | 0.006 ± 0.016 | -0.021 ± 0.0028 | -0.0325 ± 0.032 | -0.05 ± 0.055 | -0.076 ± 0.0028 | -0.0255 ± 0.044 | -0.0575 ± 0.069 | -0.0375 ± 0.07 | -0.0435 ± 0.025 | 0.017 ± 0.028 | 0.0135 ± 0.025 | 0.0075 ± 0.0064 |
| CASM3C:Proliferation | -0.011 ± 0.096 | 0.0805 ± 0.025 | 0.0585 ± 0.0021 | 0.041 ± 0.014 | -0.011 ± 0.021 | -0.0215 ± 0.00071 | -0.324 | -0.02 ± 0.013 | -0.122 ± 0.035 | -0.033 ± 0.021 | -0.042 ± 0.0014 | 0.021 ± 0.027 | -0.009 ± 0.031 | 0.035 ± 0.064 | -0.0075 ± 0.025 | 0.003 ± 0.017 | -0.012 ± 0.027 | -0.0015 ± 0.0035 | 0.0215 ± 0.012 |
| MyoF:Decorin | 0.0355 ± 0.037 | 0.0025 ± 0.026 | 0.0105 ± 0.016 | 0.0275 ± 0.0078 | 0.004 ± 0.027 | -0.0005 ± 0.042 | 0.007 | -0.041 ± 0.024 | -0.034 ± 0.025 | 0.017 ± 0.025 | 0.0235 ± 0.013 | 0.0245 ± 0.021 | 0.0065 ± 0.033 | 0.0045 ± 0.025 | 0.073 ± 0.05 | -0.0195 ± 0.019 | 0.018 ± 0.014 | 0.0075 ± 0.005 | 0.022 ± 0.0014 |
| HDF3CGF:PAI-I | -0.0705 ± 0.14 | -0.0725 ± 0.079 | -0.0445 ± 0.079 | -0.081 ± 0.16 | -0.0005 ± 0.0035 | 0.007 ± 0.0014 | -0.564 | -0.0325 ± 0.012 | -0.117 ± 0.0021 | -0.0115 ± 0.0021 | -0.025 ± 0.023 | 0.0175 ± 0.018 | -0.004 ± 0.0042 | -0.009 ± 0.011 | 0.0065 ± 0.036 | -0.0555 ± 0.0035 | -0.045 ± 0.011 | -0.018 ± 0.1 | 0.0135 ± 0.0035 |
| CASM3C:M-CSF | 0.0285 ± 0.013 | -0.051 ± 0.027 | -0.0455 ± 0.0021 | -0.0275 ± 0.081 | -0.052 ± 0.027 | -0.054 ± 0.014 | -0.065 | 0.0505 ± 0.0021 | 0.0315 ± 0.0092 | -0.0565 ± 0.015 | -0.03 ± 0.021 | 0.013 ± 0.037 | -0.024 ± 0.0028 | -0.0445 ± 0.013 | 0.007 ± 0.051 | -0.0135 ± 0.012 | 0.003 ± 0.016 | 0.0245 ± 0.019 | 0.024 ± 0.0099 |
| MyoF:Collagen IV | -0.0195 ± 0.025 | 0.004 ± 0.033 | 0.007 ± 0.061 | -0.014 ± 0.016 | -0.0265 ± 0.0035 | -0.013 ± 0.0071 | 0.156 | 0.0385 ± 0.005 | 0.165 ± 0.0028 | -0.026 ± 0.0042 | -0.027 ± 0.02 | -0.0075 ± 0.03 | 0.0145 ± 0.022 | 0.0265 ± 0.046 | 0.0665 ± 0.077 | 0.0065 ± 0.0021 | -0.0185 ± 0.019 | 0.004 ± 0.065 | 0.014 ± 0.075 |
